Assay results as given in patent publication US11685746B2, “Heteroaryl compounds for treating Huntington's disease” (PTC THERAPEUTICS, INC., priority 2018, dated 2023).

Tested on: Endogenous Huntingtin Protein
Experiment: Endogenous Huntingtin Protein Assay (MSD plates, MW1 or MAB2166 capture antibody)
Format: cell-based
Conditions: Table 1
Method in brief: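 Sandwich MSD immunoassay: plates were coated overnight at 4° C with MW1 (expanded polyQ) or MAB2166 capture antibody at 1 μg/mL, then blocked with 5% BSA. Samples were bound overnight at 4° C, followed by rabbit mAb #5656S and SULFO-TAG anti-rabbit detection, each at 0.25 μg/mL for 1 h at room temperature. Signal was read by electrochemiluminescence.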

Row | SMILES | IC50 [µM]
1 | CN(c1nc2sc(-c3cnc(-c4cn[nH]c4)cn3)nc2s1)[C@H]1C[C@]2(C)CC[C@](C)(C1)N2 [Compound 142, N-[(1R,3s,5S)-1,5-dimethyl-8-azabicyclo[3.2.1]octan-3-yl]-N-methyl-5-[5-(1H-pyrazol-4-yl)pyrazin-2-yl][1,3]thiazolo[5,4-d][1,3]thiazol-2-amine] | ≤ 0.1
2 | Oc1cc(-c2cn[nH]c2)ccc1-c1nc2sc(N3CC4(CC5CCC(C4)N5)C3)nc2s1 [Compound 198, 5-(1H-pyrazol-4-yl)-2-[5-(spiro[8-azabicyclo[3.2.1]octane-3,3′-azetidin]-1′-yl)[1,3]thiazolo[5,4-d][1,3]thiazol-2-yl]phenol] | 0.5 to 1
3 | Cn1cc2cc(-c3nn4cc(C5CCNCC5)nc4s3)cc(F)c2n1 [Compound 28, 7-fluoro-2-methyl-5-[6-(piperidin-4-yl)imidazo[2,1-b][1,3,4]thiadiazol-2-yl]-2H-indazole] | ≤ 0.1
4 | CN(c1nc2sc(-n3ccc(-c4cn[nH]c4)cc3=O)nc2s1)C1CCNCC1 [Compound 188, 1-{5-[methyl(piperidin-4-yl)amino][1,3]thiazolo[5,4-d][1,3]thiazol-2-yl}-4-(1H-pyrazol-4-yl)pyridin-2(1H)-one] | ≤ 0.1
5 | CN(c1nc2sc(-c3cnc(-c4ccn(C)c(=O)c4)cn3)nc2s1)[C@H]1C[C@]2(C)CC[C@](C)(C1)N2 [Compound 92, 4-[5-(5-{[(1R,3s,5S)-1,5-dimethyl-8-azabicyclo[3.2.1]octan-3-yl](methyl)amino}[1,3]thiazolo[5,4-d][1,3]thiazol-2-yl)pyrazin-2-yl]-1-methylpyridin-2(1H)-one] | ≤ 0.1
6 | CN(c1nc2sc(-c3ncc(-c4cn[nH]c4)c4cc[nH]c34)nc2s1)[C@H]1C[C@]2(C)CC[C@](C)(C1)N2 [Compound 154, N-[(1R,3s,5S)-1,5-dimethyl-8-azabicyclo[3.2.1]octan-3-yl]-N-methyl-5-[4-(1H-pyrazol-4-yl)-1H-pyrrolo[2,3-c]pyridin-7-yl][1,3]thiazolo[5,4-d][1,3]thiazol-2-amine] | ≤ 0.1
7 | CN(c1nn2c(Cl)c(-c3ccc(-c4cn[nH]c4)cc3O)nc2s1)C1CC(C)(C)NC(C)(C)C1 [Compound 9, 2-{5-chloro-2-[methyl(2,2,6,6-tetramethylpiperidin-4-yl)amino]imidazo[2,1-b][1,3,4]thiadiazol-6-yl}-5-(1H-pyrazol-4-yl)phenol] | 0.1 to 0.5
8 | CC(C)(C)NC1CCN(c2nc3sc(-c4ccc(-c5cn[nH]c5)cc4O)nc3s2)C1 (stereo not shown) [Compound 147, 2-{5-[3-(tert-butylamino)pyrrolidin-1-yl][1,3]thiazolo[5,4-d][1,3]thiazol-2-yl}-5-(1H-pyrazol-4-yl)phenol] | 1 to 3
9 | CN(c1nc2sc(-c3ncc(-n4ccnc4)cc3O)nc2s1)C1CCNCC1 [Compound 60, 5-(1H-imidazol-1-yl)-2-{5-[methyl(piperidin-4-yl)amino][1,3]thiazolo[5,4-d][1,3]thiazol-2-yl}pyridin-3-ol] | 1 to 3
10 | Oc1cc(-c2cn[nH]c2)ccc1-c1nc2sc(C3CCNCC3)nc2s1 [Compound 208, 2-[5-(piperidin-4-yl)[1,3]thiazolo[5,4-d][1,3]thiazol-2-yl]-5-(1H-pyrazol-4-yl)phenol] | 1 to 3
11 | CC1CC(N(C)c2nc3sc(-c4ncc(-c5cn[nH]c5)c5[nH]cnc45)nc3s2)CCN1C (stereo not shown) [Compound 115, N-(1,2-dimethylpiperidin-4-yl)-N-methyl-5-[7-(1H-pyrazol-4-yl)-1H-imidazo[4,5-c]pyridin-4-yl][1,3]thiazolo[5,4-d][1,3]thiazol-2-amine] | ≤ 0.1
12 | CCN1[C@@H]2CC[C@H]1C[C@H](N(C)c1nc3sc(-n4ccc(-c5cn[nH]c5)cc4=O)nc3s1)C2 [Compound 166, 1-(5-{[(1R,3s,5S)-8-ethyl-8-azabicyclo[3.2.1]octan-3-yl](methyl)amino}[1,3]thiazolo[5,4-d][1,3]thiazol-2-yl)-4-(1H-pyrazol-4-yl)pyridin-2(1H)-one] | ≤ 0.1
13 | C[C@@H]1C[C@@H](N(C)c2nc3sc(-c4ncc(-c5cn[nH]c5)c5cc[nH]c45)nc3s2)CCN1 [Compound 87, N-methyl-N-[(2R,4S)-2-methylpiperidin-4-yl]-5-[4-(1H-pyrazol-4-yl)-1H-pyrrolo[2,3-c]pyridin-7-yl][1,3]thiazolo[5,4-d][1,3]thiazol-2-amine] | ≤ 0.1
14 | Cc1n[nH]c(C)c1-c1cnc(-c2nc3sc(N(C)[C@H]4C[C@]5(C)CC[C@](C)(C4)N5)nc3s2)cn1 [Compound 73, N-[(1R,3s,5S)-1,5-dimethyl-8-azabicyclo[3.2.1]octan-3-yl]-5-[5-(3,5-dimethyl-1H-pyrazol-4-yl)pyrazin-2-yl]-N-methyl[1,3]thiazolo[5,4-d][1,3]thiazol-2-amine] | 1 to 3
15 | CN(c1nc2sc(-c3cnc(-n4ccnc4)cn3)nc2s1)C1CC(C)(C)NC(C)(C)C1 [Compound 102, 5-[5-(1H-imidazol-1-yl)pyrazin-2-yl]-N-methyl-N-(2,2,6,6-tetramethylpiperidin-4-yl)[1,3]thiazolo[5,4-d][1,3]thiazol-2-amine] | ≤ 0.1
16 | Oc1cc(-c2cn[nH]c2)cnc1-c1nc2sc(N3CC4(CCNCC4)C3)nc2s1 [Compound 209, 2-[5-(2,7-diazaspiro[3.5]nonan-2-yl)[1,3]thiazolo[5,4-d][1,3]thiazol-2-yl]-5-(1H-pyrazol-4-yl)pyridin-3-ol] | ≤ 0.1
17 | Cn1cc2cc(-c3nc4sc(C5CCNCC5)nc4s3)ccc2n1 [Compound 25, 2-methyl-5-[5-(piperidin-4-yl)[1,3]thiazolo[5,4-d][1,3]thiazol-2-yl]-2H-indazole] | 0.1 to 0.5
18 | CN(c1nc2sc(-c3cnc(-c4cn[nH]c4)cn3)nc2s1)C1CC(C)(C)NC(C)(C)C1 [Compound 163, N-methyl-5-[5-(1H-pyrazol-4-yl)pyrazin-2-yl]-N-(2,2,6,6-tetramethylpiperidin-4-yl)[1,3]thiazolo[5,4-d][1,3]thiazol-2-amine] | ≤ 0.1
19 | CCN1CCC(N(C)c2nc3sc(-c4ncc(-c5cn[nH]c5)c5cc[nH]c45)nc3s2)CC1 [Compound 122, N-(1-ethylpiperidin-4-yl)-N-methyl-5-[4-(1H-pyrazol-4-yl)-1H-pyrrolo[2,3-c]pyridin-7-yl][1,3]thiazolo[5,4-d][1,3]thiazol-2-amine] | ≤ 0.1
20 | CN(c1nc2sc(-c3ccc(-c4cn[nH]c4)nn3)nc2s1)[C@@H]1C[C@H]2CC[C@@H](C1)N2 [Compound 168, N-[(1R,3s,5S)-8-azabicyclo[3.2.1]octan-3-yl]-N-methyl-5-[6-(1H-pyrazol-4-yl)pyridazin-3-yl][1,3]thiazolo[5,4-d][1,3]thiazol-2-amine] | ≤ 0.1
21 | CN(c1nc2sc(-c3cnc(-n4cccn4)cn3)nc2s1)[C@H]1C[C@]2(C)CC[C@](C)(C1)N2 [Compound 104, N-[(1R,3s,5S)-1,5-dimethyl-8-azabicyclo[3.2.1]octan-3-yl]-N-methyl-5-[5-(1H-pyrazol-1-yl)pyrazin-2-yl][1,3]thiazolo[5,4-d][1,3]thiazol-2-amine] | 0.5 to 1
22 | Oc1cc(-c2cn[nH]c2)cnc1-c1nc2sc(N3CC4(CCCNC4)C3)nc2s1 [Compound 192, 2-[5-(2,6-diazaspiro[3.5]nonan-2-yl)[1,3]thiazolo[5,4-d][1,3]thiazol-2-yl]-5-(1H-pyrazol-4-yl)pyridin-3-ol] | ≤ 0.1
